# Measurements from ChEMBL document CHEMBL2413026, “Synthesis and biological evaluation against Leishmania amazonensis of a series of alkyl-substituted benzophenones” (Bioorg Med Chem, 2013).
# Legend:
# [1] = Cytotoxicity against mouse peritoneal macrophages after 72 hrs by MTT assay; type: cell-based, Peritoneal macrophage cell
# Leishmania amazonensis [2] = experiment: Leishmanicidal activity against promastigote form of Leishmania amazonensis MHOM/BR/71973/M2269 after 72 hrs by cell counting; type: functional, organism-based; settings: MHOM/BR/71973/M2269, 72 h
# [3] = Selectivity index, ratio of CC50 for mouse peritoneal macrophages to IC50 for promastigote form of Leishmania amazonensis MHOM/BR/71973/M2269; type: functional
# Leishmania amazonensis [4] = experiment: Ratio of 4,4'-dihydroxybenzophenone IC50 to compound IC50 for spromastigote forms of Leishmania amazonensis MHOM/BR/71973/M2269 after 72 hrs by cell counting; type: functional
Structure (SMILES),CC50 at 72 h [1] [µg/mL],IC50 (Leishmania amazonensis [2]) [µg/mL],Ratio CC50/IC50 [3],Ratio IC50 (Leishmania amazonensis [4])
O=C(c1ccccc1)c1ccc(O)cc1,> 160,40.9,,
O=C(c1ccc(O)cc1)c1ccc(O)cc1,> 160,121,,
COc1ccc(C(=O)c2ccccc2)cc1,28,5.05,,
CCCCOc1ccc(C(=O)c2ccccc2)c(O)c1,40.6,9.8,,
CC(C)=CCOc1ccc(C(=O)c2ccccc2)c(O)c1,140,7.05,19.86,
CCCCOc1ccc(C(=O)c2ccccc2)cc1,28.9,8.56,,
CC(C)=CCOc1ccc(C(=O)c2ccccc2)cc1,87.1,7.82,,
CCCCOc1ccc(C(=O)c2ccc(OCCCC)cc2)cc1,> 160,23.8,,
CC(C)=CCOc1ccc(C(=O)c2ccc(OCC=C(C)C)cc2)cc1,> 160,5.94,26.93,250
"O=C(c1ccccc1)c1ccc(O)cc1O [2,4-DIHYDROXYBENZOPHENONE]",> 160,29,,
C[C@@H]1[C@H](O)[C@@H](C)/C=C/C=C/C=C/C=C/C=C/C=C/C=C/[C@H](O[C@@H]2O[C@H](C)[C@@H](O)[C@H](N)[C@@H]2O)C[C@@H]2O[C@](O)(C[C@@H](O)C[C@@H](O)[C@H](O)CC[C@@H](O)C[C@@H](O)CC(=O)O[C@H]1C)C[C@H](O)[C@H]2C(=O)O [AMPHOTERICIN B],25,4.7,5.32,
COc1ccc(C(=O)c2ccccc2)c(O)c1 [OXYBENZONE],24.6,4.9,,
N=C(N)c1ccc(OCCCCCOc2ccc(C(=N)N)cc2)cc1 [PENTAMIDINE],3.82,0.44,8.68,
